From US7517902B2, “Substituted indazoles, compositions containing the same, and the preparation and use thereof” (Aventis Pharma S.A., priority 2004, dated 2009) come the findings set out here.

Series [1] has as its target T1, human KDR enzyme (Homo sapiens, UniProt P35968).
T1 construct: The cytoplasmic domain of the human KDR enzyme was cloned in the form of a GST fusion; GST; made in house; host or cells: SF21 insect cells (baculovirus, pFastBac)
The series can be described thus: KDR substrate phosphorylation assay (scintillation, 96-well plate). The format is biochemical. The method, boiled down: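 GST-fused cytoplasmic domain of human KDR (Sf21-expressed, ~60% pure; 100 ng) mixed with compound at 4 °C in MOPS buffer pH 7.2 with Mg2+/Mn2+, DTT, EGTA, vanadate, NaF. Started with 2 μg GST-PLCγ SH2-SH3, γ33P-ATP and cold ATP (2 μM in starting solution); 1 h, 37 °C, EDTA stop. Result: % inhibition vs no-compound control.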

The target in series [2] is T2, CDK4/cyclin D1 kinase complex (Homo sapiens, UniProt P11802).
T2 construct: HA (Hemagglutinin tag) (C); made in house; host or cells: Sf9 insect cells (baculovirus co-infection)
T2 sequence (P11802 whole entry): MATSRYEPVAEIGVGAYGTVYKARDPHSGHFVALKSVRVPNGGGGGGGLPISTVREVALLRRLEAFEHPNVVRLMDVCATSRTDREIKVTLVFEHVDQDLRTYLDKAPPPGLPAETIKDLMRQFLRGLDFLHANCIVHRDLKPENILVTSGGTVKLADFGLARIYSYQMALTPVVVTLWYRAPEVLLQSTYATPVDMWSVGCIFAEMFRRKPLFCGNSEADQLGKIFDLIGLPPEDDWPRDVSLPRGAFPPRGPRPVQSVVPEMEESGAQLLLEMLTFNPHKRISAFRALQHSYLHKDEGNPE
T2 sequence (P24385 whole entry partner): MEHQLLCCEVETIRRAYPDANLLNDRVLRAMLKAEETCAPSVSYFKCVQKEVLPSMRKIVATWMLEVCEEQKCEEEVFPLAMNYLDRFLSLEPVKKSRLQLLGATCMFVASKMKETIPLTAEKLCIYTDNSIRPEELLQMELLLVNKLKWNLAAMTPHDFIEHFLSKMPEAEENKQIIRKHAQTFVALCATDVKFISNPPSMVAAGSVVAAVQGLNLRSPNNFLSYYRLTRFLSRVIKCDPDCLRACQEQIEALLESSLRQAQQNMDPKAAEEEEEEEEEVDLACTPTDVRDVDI
The series can be described thus: CDK4/cyclinD1 Flashplate assay in 96-well format. Conditions: read-out: IC 50 CDK4. The format is biochemical. As to the method:
Purification of the CDK4-HA/cyclin D1-(His)6 complex by IMAC (Immobilized Metal Affinity Chromatography):
Two recombinant baculoviruses carrying the human sequences coding respectively for CDK4-HA (C-terminal fusion with the Hemagglutinin tag) and for cyclin D1-(His)6 are used to co-infect Sf9 insect cells. Sixty hours after the beginning of co-infection, the cells are harvested by centrifugation and then frozen at −20° C. until their use. After thawing in buffer A (HEPES 200 mM pH 7.0, NaCl 50 mM, MgCl2 2 mM, imidazole 25 mM, TCEP 1 mM, glycerol 10% (w/v), NaF 1 mM, Na3VO4 1 mM), stirring at 4° C. for 1 h, and centrifugation, the complex present in the lysis supernatant is purified by affinity chromatography on nickel (IMAC) and stored at −80° C.
CDK4/cyclinD1 Flashplate Assay in 96-Well Format.
An assay in 96-well “Flashplate” (scintillation plate) plates coated with streptavidin is used to evaluate the inhibition of the CDK4/cyclin D1 kinase complex by the products of the invention. To perform this test, the biotinylated peptide substrate, a fragment of the pRb protein, (biotinyl-[…]-amide), is dissolved at a concentration of 2 mM in kinase buffer (HEPES/NaOH 50 mM, NaCl 1 mM, MgCl2 5 mM, pH=7.5) to form a stock solution, which is stored at −20° C. in the form of 110 μl aliquots. On the day of the experiment, an aliquot of this solution is thawed and diluted in kinase buffer containing 1 mM of dithiothreitol, added at the time of use, so as to give a final peptide concentration of 2.571 μM. seventy μl of this solution are deposited in each well of the Flashplate plate, to give a final substrate concentration of 1.8 μM during the enzymatic reaction, which is performed in a final volume of 100 μl (cf. below). Intermediate dilutions of inhibitors (products of the invention) at various concentrations are prepared in DMSO from 10 mM stock solutions in separate tubes. In this way dilutions at 1000 μM, 333.3 μM, 111.1 μM, 37.03 μM, 12.35 μM, 4.11 μM and 1.37 μM are produced. One μl of each of these solutions (or 1 μl of DMSO for the controls) is subsequently transferred into the wells of the assay plate. To each well there is subsequently added 19 μl of a solution of a mixture of adenosine triphosphate (ATP) and ATPγ^33P in the kinase buffer at a concentration of 5.26 μM of total ATP and 78.9 μCi/ml of ^33P. The enzymatic reaction is triggered by adding 10 μl per well of a solution of CDK4/cyclin D1 complex at 250 nM in the kinase buffer, containing 1 mM of dithiothreitol (or 10 μl of kinase buffer containing 1 mM of dithiothreitol for the reaction blanks). At the end of the various additions, the final volume in each well is 100 μl, the final substrate concentration is 1.8 μM, the final inhibitor concentrations are 10 μM, 3.33 μM, 1.11 μM, 0.37 μM, 0.123 μM, 0.041 μM and 0.014 μM (depending on the concentration of the intermediate dilution), the final ATP concentration is 1 μM, the final amount of ^33P is 1.5 μCi/well, and the final concentration of CDK4/cyclin D1 complex is 25 nM.
After all of the reagents have been added, the assay plate is incubated at 30° C. with orbital stirring at 650 rpm. Following incubation, the plate is washed three times with 300 μl per well of PBS buffer (phosphate buffered saline, pH=7.4 with neither calcium nor magnesium, reference 10010-015, Gibco BRL). The incorporation of ^33P into the substrate peptide is measured by scintillation counting using a Packard Topcount.NXT instrument. The inhibitory activity of the products of the invention is evaluated by determining the concentration of inhibitor resulting in a 50% reduction in the enzymatic activity (IC50).

Each structure is given as a SMILES string. pIC50: −log10 of the molar value. Counter-ions that a name gives are not always drawn.

T1 sequence (P35968 786-1356 limits assumed): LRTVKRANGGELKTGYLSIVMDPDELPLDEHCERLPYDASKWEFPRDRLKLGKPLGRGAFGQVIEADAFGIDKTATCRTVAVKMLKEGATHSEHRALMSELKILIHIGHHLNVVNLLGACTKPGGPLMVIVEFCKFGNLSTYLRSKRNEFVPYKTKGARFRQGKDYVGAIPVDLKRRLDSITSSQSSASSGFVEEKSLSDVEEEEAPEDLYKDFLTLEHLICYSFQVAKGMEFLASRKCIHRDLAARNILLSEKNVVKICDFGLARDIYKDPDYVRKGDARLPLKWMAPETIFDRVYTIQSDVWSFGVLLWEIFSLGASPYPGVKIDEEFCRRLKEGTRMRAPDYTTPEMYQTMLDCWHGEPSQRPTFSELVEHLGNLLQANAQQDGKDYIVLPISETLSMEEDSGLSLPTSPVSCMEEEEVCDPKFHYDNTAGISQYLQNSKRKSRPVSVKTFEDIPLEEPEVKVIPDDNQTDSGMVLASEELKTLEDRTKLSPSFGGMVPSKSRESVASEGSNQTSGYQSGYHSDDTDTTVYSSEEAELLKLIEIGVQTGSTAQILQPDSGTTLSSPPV

Take `Nc1n[nH]c2c(F)c(-c3ccc(NS(=O)(=O)c4cccc(Cl)c4Cl)cc3)ccc12` [Example 8, 1-[4-(3-Amino-1H-indazol-6-yl)-7-fluorophenyl]-2,3-dichlorobenzenesulfonamide hydrochloride]: the pIC50 in series [1] was 5.18; in series [2], 6.93.

Turning to `Nc1n[nH]c2cc(-c3ccc(NS(=O)(=O)c4cccc(Cl)c4Cl)cc3)ccc12` [Example 2, 1-[4-(3-Amino-1H-indazol-6-yl)phenyl]-2,3-dichlorobenzenesulfonamide hydrochloride], the pIC50 in series [2] is 6.88.

For orientation: melting point means the temperature of the solid-liquid transition. `O=C(Nc1n[nH]c2cc(-c3ccc(NS(=O)(=O)c4cccc(Cl)c4Cl)cc3)ccc12)c1ccsc1` [Example 3, 3-Thiophenecarboxylic acid {6-[4-(2,3dichlorobenzenesulfonylamino)phenyl]-1H-indazol-3-yl}amide] displayed a melting point of 196 °C. The compound further showed a pIC50 in series [1] of 6.06. In addition, the pIC50 in series [2] is 6.84.

With `O=C(Nc1n[nH]c2c(F)c(-c3ccc(NS(=O)(=O)c4cccc(Cl)c4Cl)cc3)ccc12)c1ccsc1` [Example 5, 3-Thiophenecarboxylic acid {6-[4-(2,3-dichlorobenzenesulfonylamino)-7-fluorophenyl]-1H-indazol-3-yl}amide], the pIC50 was 5.73 in series [1] and 7.26 in series [2].
